Data on six compounds can be found in patent publication EP0440787B1, “COMPOUNDS OF 1,4-BIS(AMINO)BENZO(G)PHTHALAZENE” (CONSEJO SUPERIOR DE INVESTIGACIONES CIENTIFICAS, priority 1989, dated 1990).

Molecules are shown by their SMILES. ≈ marks a conversion by molar mass, not a printed value. Like-named read-outs stand apart in the source and are kept apart here. Marks after values point to notes of the source that are not given here. Starred links: 1 amine or outer side, 2 acyl side, 3 side chain; linkers in the order of their positions; H or OH if unused. Positions of bridges follow the written chain, without caps; N, C: chain ends. Non-standard residues stand in square brackets, D forms with d. Residues, ends and D or L forms follow the SMILES beside them. Chains are numbered I, II in the order given. Actinocin(9to1) = Cc1c2oc3c(C)ccc(C(=O)[*:1])c3nc-2c(C(=O)[*:2])c(N)c1=O; NMeV = CN[C@H](C(=O)O)C(C)C; Sar = CNCC(=O)O

For data set [1] the following is noted: clinical drugs, from reference (12); cited from earlier work.
For data set [2], the system named is HeLa cell lines (from a human uterine cervix carcinoma). Nature of the data set: Cytostatic and cytocidal activity in vitro, HeLa cell cultures. Type of data set: cell-based. On the procedure:
(§1) The cytostatic and cytocidal activity of BBPh has been evaluated employing HeLa cell lines (from a human uterine cervix carcinoma), ADLD-clon (from a human malignant melanona) and a semicontinuos LMMB cell line (from normal human tonsilar fibroblasts).
(§2) In order to perform both "in vitro" and "in vivo" experiments a concentrated stock solution of BBPh in dimethyl sulfoxide (DMSO) was prepared. From it increasing diluted solutions in McCoy's R5aI grown medium supplemented with 5% human serum, 5% calf serum, 5% fetal bovine serum, 100 IU/mL penicillin, 100 ug/mL streptomycin and 16 ug/mL gentamycin were obtained.
(§3) Serial dilutions of BBPh and the solvent were assayed in cultures seeded 24 hours before on 96-well "Microtiter" plates. The seeding was carried out by depositing 200 µL of cell suspension in growth medium in each well, adjusted to 3 x 10^5/mL HeLa cells, 9 x 10^5/mL ADLD-clon cells or 4 x 10^5/mL LMMB cells.
(§4) The plates with different concentrations of BBPh and control solutions were incubated at 37°C in a humidily saturated air containing 5% CO2.
(§5) Then the plates were fixed and stained to stimate the effects of BBPh under the conditions described by Alvarez (1986) (11) taken Adriamycin as antitumoral compound of reference. […]

The test system of data set [3] is ADLD-clon (from a human malignant melanona). The data set is described as follows: Cytostatic and cytocidal activity in vitro, ADLD-clon cell cultures. The class given is cell-based. On the procedure: as §1, §2, §3, §4, §5
Data set [4] relates to LMMB cell line (from normal human tonsilar fibroblasts). Nature of the data set: Cytostatic and cytocidal activity in vitro, LMMB normal cell cultures. The class given is cell-based. As to conditions: Fibroblast. As to the method: as §1, §2, §3, §4, §5
Data set [5] has as its system Ehrlich ascites cancer cells. Nature of the data set: In vivo antitumoral activity, subcutaneous transplant of Ehrlich ascites cancer cells in mice. On the set-up: species or system swiss mice. On the procedure: Five groups of six 2-month male swiss mice weighing 25 grams were disposed. Each animal received a transplant of 10^5 Ehrlich ascites cancer cells by the subcutaneous route in the interscapular region. Fourteen days later, when the tumors were evident and measured more than 3 millimeter in diameter, the animals were submitted to the different treatments.
Group 1 received a first intraperitoneal dose of 300 µL of DMSO followed by equal subcutaneous doses, the next three consecutive days.
Group 2 received a single intraperitoneal dose of 100 µg of BBPh solubilized in 300 µL of DMSO, followed by equal subcutaneous doses the next three consecutive days.
Group 3 received a single intraperitoneal dose of 500 µg of BBPh in 300 µL of DMSO.
Group 4 received a single intraperitoneal dose of 1.000 µg of BBPh in 300 µL of DMSO.
Group 5 received a single subcutaneous dose of 4.000 µg BBPh in an oily solution.

Data set [6] in a line: 50 per 100 lethal dose (LD50) of BBPh and toxicity in mice. Particulars: DMSO as solvent. The class given is in vivo.
Data set [7] in a line: pKa of BBPh. Type of data set: physicochemical. The source says:
Some anticancer drugs such as mitomycin C and antinomycin D which interact with nucleic acids have shown activity against Trypanosoma cruzi (16). […] Following a similar behaviour the 1,4-bis(buthylamino)benzo[g] phthalazine (BBPh) which is able to form 1,4-bis(buthylamino) benzo[g]phthalazinium cations at physiological PH (PKa of BBPh = 8.6) and is a potential intercalating agent has shown both, antineoplasic and trypanosomicide activities.

Data set [8] deals with T. cruzi. Nature of the data set: Trypanosomicide activity in vitro in infected NMRI mice blood. Particulars: 24 h at 4°C; for N° Tryp/mL: controls Cd 298, Ct 247. Type of data set: cell-based, Trypanosoma cruzi.
Data set [9] relates to Trichomonas vaginalis (Srain G). Nature of the data set: microbe, parasite or virus in culture. Particulars: for MCC: read-out: Trichomonacidal activity MCC; for MIC: read-out: Trichomonacidal activity MIC.
Description: The cultures of the strains of Trichomonas vaginalis (Srain G) used as experimental model were grown in Diamond Medium (TYM) without agar (100.000 organisms/mL). […] Minimal inhibition concentration (MIC) and Minimal cytocidal concentration (MCC) were established in accordance with the definitions proposed by Escario et al. (19).
The mark [10] stands for this setting: group 5: BBPh in oily solution 1 x 4.0 mg s.c. (160 mg/kg).
The mark [11] stands for this setting: overall dose 40 mg/Kg: single i.p. dose of 1.0 mg in DMSO.

For `Cc1c2oc3c(C)ccc(C(=O)N[C@@H]4C(=O)N[C@H](C(C)C)C(=O)N5CCC[C@H]5C(=O)N(C)CC(=O)N(C)[C@@H](C(C)C)C(=O)O[C@@H]4C)c3nc-2c(C(=O)N[C@@H]2C(=O)N[C@H](C(C)C)C(=O)N3CCC[C@H]3C(=O)N(C)CC(=O)N(C)[C@@H](C(C)C)C(=O)O[C@@H]2C)c(N)c1=O` [Actinomicin D] (I: T[dV]P[Sar][NMeV] / II: T[dV]P[Sar][NMeV]; ester I:1-I:C, II:1-II:C; linker I:N-II:N via Actinocin(9to1)), in data set [1], the LD50 is 0.095 mg/kg.

In the case of `COc1cccc2c1C(=O)c1c(O)c3c(c(O)c1C2=O)C[C@@](O)(C(=O)CO)C[C@@H]3O[C@H]1C[C@H](N)[C@H](O)[C@H](C)O1` [Adriamycin, reference compound], the IC50 in data set [2] (read-out: ID50) turned out to be 0.33 µg/mL (≈ 0.607 µM); in data set [3] (read-out: ID50) it was 0.33 µg/mL (≈ 0.607 µM); in [4] (read-out: ID50), 0.07 µg/mL (≈ 0.129 µM).

As for `CCCCNc1nnc(NCCCC)c2cc3ccccc3cc12` [BBPh, 1,4-bis(n-butylamino)benzo[g]phthalazine], the IC50 in data set [2] (concentration producing death or growth inhibition of 50% of the cells, read-out: ID50 (the source's name)) turned out to be 0.67 µg/mL (≈ 2.08 µM); in data set [3] (ADLD-clon, concentration producing death or growth inhibition of 50% of the cells, read-out: ID50 (the source's name)), 0.67 µg/mL (≈ 2.08 µM); in data set [4] (LMMB normal cells, concentration producing death or growth inhibition of 50% of the cells, read-out: ID50 (the source's name)), 1.08 µg/mL (≈ 3.35 µM). Moreover, the T/S is on record as 6/5 in data set [5] (group 2: BBPh in DMSO 1 x 0.1 mg i.p. + 3 x 0.1 mg s.c.) and 5/5 in data set [5] (setting [10]). Also, the “SURVIVAL(DAYS) MST” value in data set [5] (group 2: BBPh in DMSO 1 x 0.1 mg i.p. + 3 x 0.1 mg s.c., DMSO control 59) came out at 84 days; in [5] (setting [10]), 86 days. The Toxic death in data set [5] (overall dose 16 mg/Kg: 0.1 mg i.p. then similar s.c. doses next three days, DMSO) is recorded as 1/6; in [5] (overall dose 20 mg/Kg: single i.p. dose of 0.5 mg in DMSO), 4/6; in data set [5] (setting [11]) it was 6/6. Also, the “T/C (%)” value in data set [5] (overall dose 16 mg/Kg: 0.1 mg i.p. then similar s.c. doses next three days, DMSO, active when > 125%) is 142^f %; in data set [5] (overall dose 20 mg/Kg: single i.p. dose of 0.5 mg in DMSO, active when > 125%), 161^f %; in data set [5] (setting [11]), “Toxic”. Besides, the “TST” value worked out at 84 days in [5] (overall dose 16 mg/Kg: 0.1 mg i.p. then similar s.c. doses next three days, DMSO, control 59); 96 days in data set [5] (overall dose 20 mg/Kg: single i.p. dose of 0.5 mg in DMSO, control 59); 1 days in [5] (setting [11]). Moreover, in data set [6] (i.p., single dose of 20 mg/Kg), the toxicity entry was “toxic”. Also, the LD50 in data set [6] (mouse, in vivo, ip, BBPh) amounted to 12 mg/kg. The compound also showed a pKa in [7] of 8.6. In addition, the “N° Tryp/mL” value in [8] (BBPh 75 µg/mL), in [8] (BBPh 125 µg/mL), in [8] (BBPh 250 µg/mL), in [8] (BBPh 500 µg/mL) and in data set [8] (BBPh 1000 µg/mL) was 0 Tryp/mL each time. The parasitemia entry in [8] (all samples, 1000 to 75 ug/mL) is on record as “negative parasitemia”. Also, the MCC in data set [9] is 10 to 25 µg/mL. Besides, the MIC in [9] is 5 to 10 µg/mL (≈ 15.5 to 31 µM).

Take `COc1cccc2c1C(=O)c1c(O)c3c(c(O)c1C2=O)C[C@@](O)(C(C)=O)C[C@@H]3O[C@H]1C[C@H](N)[C@H](O)[C@H](C)O1` [Daunomycin]: the median lethal dose (LD50) in data set [1] was 9.2 mg/kg.

In the case of `Cc1ncc([N+](=O)[O-])n1CCO` [Metronidazole, reference compound], in data set [9], the MCC came to 8 µg/mL and the MIC lay within 4 to 8 µg/mL (≈ 23.4 to 46.7 µM).

`CC[C@]1(O)C[C@H]2CN(CCc3c([nH]c4ccccc34)[C@@](C(=O)OC)(c3cc4c(cc3OC)N(C=O)[C@H]3[C@@](O)(C(=O)OC)[C@H](OC(C)=O)[C@]5(CC)C=CCN6CC[C@]43[C@@H]65)C2)C1` [Vincristine]: in data set [1], the 50% lethal dose (LD50) is 4.5 mg/kg.
